SMILES strings stand for the structures.

The first test has as its system STAT6 activation. Nature of the test: STAT6 activation inhibition test (IL-4-induced alkaline phosphatase STAT6 reporter gene assay). The note with it: Homo sapiens, HEK293; concentration giving 50% suppression of alkaline phosphatase activity induced by IL-4 (1 ng/mL), 16 hours; 293 cells stably expressing STAT6 gene and STAT6 reporter gene. The test is classed as cell-based, human. The method, then: The inhibitory activity on STAT6 activation of the compound according to present invention was evaluated according to the following test.
1) Construction of the STAT6 Reporter Gene
The oligonucleotide of SEQ ID: 1 resuting from three STAT6 binding regions of the human immunoglobulin germline ε gene promoter linked togeter, and the complementary strand thereof were mixed, and after thermal denaturation and annealing, the 5′ and the 3′ ends were respectively cut with the restriction enzymes Kpn I (TaKaRa Shuzo Code No. 1068A) and Xba I (TaKaRa ShuzoCode No. 1093A), and the resulting fragment was cloned into the Kpn I/Xba I site of the pUG-BGH-PLAP vector (described in Molecular Pharmacology, 49: 860–873 1996). In addition, the TK promoter region of the herpesvirus for inducing general transcription factors was cloned into the Xba I/Hind III (TaKaRa ShuzoCode No. 1060A) site of the pUG-BGH-PLAP vector. Then, to collect a stable expression cell strain, the neomycin resistance gene, that is a PGK-neo expression cassette, was incorporated into the Sal I (TaKaRa Shuzo, Code No. 1080A) site of this vector. Cloning of the TK promoter and the PGK-neo expression cassette was carried out according to Molecular Pharmacology, 49: 860–873 1996.
2) Construction of the STAT6 Expression Vector
Using the oligonucleotide of SEQ ID: 2 containing the initiation codon of the STAT6 gene and the oligonucleotide of SEQ ID: 3 containing the stop codon, Total RNA was prepared from human peripheral blood cells with the RNeasy Mini kit (OIAGEN, Code No. 74104). Thereafter, a reverse transcription reaction was carried out with the Takara RNA LA PCR kit (TaKaRa Shuzo, Code No. RR012A) to prepare cDNA, and using the primers of SEQ ID: 2 and 3, a PCR reaction was carried out, to amplify the STAT6 gene.
PCR product was digested with EcoR I (TaKaRa Shuzo, Code No. 1040A) and Xho I (TaKaRa Shuzo, 1094A), thereafter, the digested fragment was isolated on an agarose gel. The isolated fragment was incorporated into the vector fragment derived from the EcoR I/Xho I digestion of the pcDNA3.1 (+) (invtrogen, Code No. U790-20) vector.
3) Transformation and Preparation of a Stable Expression Cell Strain
In a Falcon 6-well plate for tissue culture (Becton Dickinson, Code No. 35-3046), 3.0×10^5 of 293 cells derived from human embryo kidney (American Type Culture Collection) were distributed and cultured overnight. The STAT6 reporter gene (1.5 μg), the STAT6 gene (1.5 μg) that were prepared and lipofectamine (GIBCO BRL, Code No. 18324-012) (20 μL) were mixed in OPTI-MEM culture medium (GIBCO BRL, Code No. 31985-070) (0.3 mL), and allowed to stand at room temperature for 20 minutes. Thereafter, the OPTI-MEM culture medium (1.2 mL) was further added, OPTI-MEM culture medium not containing fetal calf serum was added to washed cells, which were cultured for 2 hours. A culture medium (1.5 mL) containing fetal calf serum was added, and the cells were cultured for 19 more hours. The culture was continued by exchanging the culture medium and adding Geneticin (SIGMA, Code No. G-5013) so as to obtain 1 mg/mL, and cells with drug tolerance were selected. The selected drug tolerant cells were suspended in a culture medium containing 1 mg/mL of Geneticin, and distributed in a 96-well microplate (Becton Dickinson, Code No. 35-3072) so as to obtain 0.5 cells/well to carrry out cloning, and the clones expressing alkaline phosphatase in response to IL-4 were collected.
4) STAT6 Activation Inhibition Test
Cells stably expressing the STAT6 gene and the STAT6 reporter gene, and expressing alkaline phosphatase in response to IL-4 were distributed in a 96-well microplate (Becton Dickinson, Code No. 35-3072) so as to obtain 5000 cells/180 μL/well, and cultured overnight. […]
For the compound `CN(CC(O)c1ccc(F)cc1)S(=O)(=O)c1c(N)sc2c1CCC/C2=N\O` (stereo not shown) [Example 27, (7E)-2-Amino-7-hydroxyimino-4,5,6,7-tetrahydro-benzo[b]-thiophene-3-sulfonic acid [2-(4-fluorophenyl)-2-hydroxyethyl]-methyl-amide], the IC50 – broadly, the midpoint of a concentration-inhibition curve – is 11 nM.
`CN(CCc1cccnc1)S(=O)(=O)c1csc2c1CCC/C2=N/O` [Example 7, (7Z)-7-Hydroxyimino-4,5,6,7-tetrahydro-benzo[b]thiophene-3-sulfonic acid methyl-(2-pyridine-3-yl-ethyl)-amide]: the IC50 was determined as 4.8 nM.
Compound `CC(C)C(=NO)c1cc(S(=O)(=O)N(C)CCc2ccc(F)cc2)cs1` [Example 47, 5-(1-Hydroxyimino-2-methylpropyl)thiophene-3-sulfonic acid [2-(4-fluorophenyl)-ethyl]-methyl-amide] had an IC50 of 12 nM.
Consider `CN(C[C@@H](O)c1ccc(F)cc1)S(=O)(=O)c1csc2c1CCC/C2=N/O` [Example 13, (7Z)-N-[(2S)-2-(4-Fluorophenyl)-2-hydroxyethyl]-7-(hydroxyimino)-N-methyl-4,5,6,7-tetrahydro-1-benzothiophene-3-sulfonamide], for which half-maximal inhibition (IC50) was put at 0.36 nM. This IC50 is about 33-fold lower than that of the compound before.

The same test, now with this note: concentration giving 50% suppression of alkaline phosphatase activity induced by IL-4 (1 ng/mL), 16 hours; 293 cells stably expressing STAT6 gene and STAT6 reporter gene.
`C/C(=N/O)c1cc(S(=O)(=O)N(C)CC(O)c2ccc(F)cc2)c(N)s1` (stereo not shown) [Example 52, 2-Amino-5-[(1Z)-hydroxyimino-ethyl]-thiophene-3-sulfonic acid [2-(4-fluorophenyl)-2-hydroxyethyl]-methyl-amide] returned an IC50 of 7.9 nM.
Compound `CN(CC(O)c1ccc(F)cc1)S(=O)(=O)c1csc2c1CCC/C2=N/O` (stereo not shown) [Example 1, (7Z)-7-Hydroxyimino-4,5,6,7-tetrahydro-benzo[b]thiophene-3-sulfonic acid[2-(4-fluorophenyl)-2-hydroxyethyl]-methyl-amide] returned an IC50 of 1.13 nM.
Same read-out and setting: in the case of `CC(C)C(=NO)c1cc(S(=O)(=O)N(C)CC(O)c2ccc(F)cc2)c(N)s1` (stereo not shown) [Example 64, 2-Amino-5-(1-hydroxyimino-2-methylpropyl)thiophene-3-sulfonic acid[2-(4-fluorophenyl)-2-hydroxyethyl]-methyl-amide] it was 40 nM; in that of `CN(CCc1ccc(F)cc1[N+](=O)[O-])S(=O)(=O)c1csc2c1CCC/C2=N/O` [Example 5, (7Z)-7-Hydroxyimino-4,5,6,7-tetrahydro-benzo[b]thiophene-3-sulfonic acid[2-(4-fluoro-2-nitro-Phenyl)-ethyl]-methyl-amide], 21 nM.
As to `C/C(=N/O)c1cc(S(=O)(=O)N(C)CCc2ccc(F)cc2)c(N)s1` [Example 60, 2-Amino-5-[(1Z)-hydroxyimino-ethyl]-thiophene-3-sulfonic acid [2-(4-fluorophenyl)-ethyl]-methyl-amide], the IC50 turned out to be 1.6 nM.
Compound `CC(C)/C(=N/O)c1cc(S(=O)(=O)N(C)CCc2ccc(F)cc2)c(N)s1` [Example 63, 2-Amino-5-[(1Z)-hydroxyimino-2-methylpropyl]thiophene-3-sulfonic acid[2-(4-fluorophenyl)ethyl]-methyl-amide] registered an IC50 of 40 nM.
For `CN(CC(NC(N)=O)c1ccc(F)cc1)S(=O)(=O)c1csc2c1CCCC2=NO` (stereo not shown) [Example 25, 7-Hydroxyimino-4,5,6,7-tetrahydrobenzo[b]thiophene-3-sulfonic acid [(2-(4-fluorophenyl)-2-ureideethyl)]-methyl-amide], inhibition was half-maximal at 13 nM (IC50).
With `CN(CCc1ccc(F)cc1)S(=O)(=O)c1csc2c1CCC(O)/C2=N/O` (stereo not shown) [Example 33, (7Z)-6-Hydroxy-7-hydroxyimino-4,5,6,7-tetrahydrobenzo[b]-thiophene-3-sulfonic acid[(2-(4-fluorophenyl)ethyl)]-methyl-amide], the IC50 was 11 nM.
`CCOc1ccc(NC(=O)O/N=C2/CCCc3c(S(=O)(=O)N(C)CC(O)c4ccc(F)cc4)csc32)cc1` (stereo not shown) [Example 73, (7Z)-7-({[(4-Ethoxyanilino)carbonyl]oxo}imino)-3-{[[2-(4-fluoro-phenyl)-2-hydroxyethyl](methyl)amino]sulfonyl}-4,5,6,7-tetrahydro-1-benzothiophene] returned an IC50 of 0.9 nM.

The values are drawn from patent US7217723B2, “Heterocyclic compound having oxime group” (Eisai Co., Ltd., priority 2004, dated 2007).
